Test results published in ChEMBL document CHEMBL3881530, “Compounds and methods for inhibiting NHE-mediated antiport in the treatment of disorders associated with fluid retention or salt overload and gastrointestinal tract disorders” (2013).

Columns and labels:
[1] = biological target: T1, Sodium/hydrogen exchanger 2 (Homo sapiens, UniProt Q9UBY0); test: Inhibition of NHE-2 (unknown origin)
T1 sequence (Q9UBY0 whole entry): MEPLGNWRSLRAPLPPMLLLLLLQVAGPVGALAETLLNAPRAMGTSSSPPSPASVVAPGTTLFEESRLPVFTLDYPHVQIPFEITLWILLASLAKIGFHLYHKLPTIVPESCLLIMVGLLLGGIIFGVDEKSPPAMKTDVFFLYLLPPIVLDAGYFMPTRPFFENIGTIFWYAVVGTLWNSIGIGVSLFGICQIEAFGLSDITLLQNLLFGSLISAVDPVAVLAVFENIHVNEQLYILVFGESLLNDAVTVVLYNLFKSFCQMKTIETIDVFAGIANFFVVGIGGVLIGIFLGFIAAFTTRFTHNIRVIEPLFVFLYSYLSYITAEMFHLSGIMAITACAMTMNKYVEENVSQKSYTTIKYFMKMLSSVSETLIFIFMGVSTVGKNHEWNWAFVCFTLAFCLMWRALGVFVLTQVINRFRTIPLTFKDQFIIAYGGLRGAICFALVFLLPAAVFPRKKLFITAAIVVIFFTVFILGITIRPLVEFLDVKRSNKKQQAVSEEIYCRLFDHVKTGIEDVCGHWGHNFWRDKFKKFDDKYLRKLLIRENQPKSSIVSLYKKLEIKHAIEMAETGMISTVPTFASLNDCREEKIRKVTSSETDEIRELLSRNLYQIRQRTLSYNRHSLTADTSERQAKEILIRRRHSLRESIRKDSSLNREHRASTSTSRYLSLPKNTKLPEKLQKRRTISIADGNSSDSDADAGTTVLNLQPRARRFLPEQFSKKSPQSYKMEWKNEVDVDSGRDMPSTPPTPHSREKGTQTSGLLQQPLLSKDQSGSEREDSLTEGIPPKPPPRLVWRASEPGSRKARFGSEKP

[2] = biological target: T2, Sodium/hydrogen exchanger 3 (Homo sapiens, UniProt P48764); test: Inhibition of NHE-3 (unknown origin)
T2 sequence (P48764 whole entry): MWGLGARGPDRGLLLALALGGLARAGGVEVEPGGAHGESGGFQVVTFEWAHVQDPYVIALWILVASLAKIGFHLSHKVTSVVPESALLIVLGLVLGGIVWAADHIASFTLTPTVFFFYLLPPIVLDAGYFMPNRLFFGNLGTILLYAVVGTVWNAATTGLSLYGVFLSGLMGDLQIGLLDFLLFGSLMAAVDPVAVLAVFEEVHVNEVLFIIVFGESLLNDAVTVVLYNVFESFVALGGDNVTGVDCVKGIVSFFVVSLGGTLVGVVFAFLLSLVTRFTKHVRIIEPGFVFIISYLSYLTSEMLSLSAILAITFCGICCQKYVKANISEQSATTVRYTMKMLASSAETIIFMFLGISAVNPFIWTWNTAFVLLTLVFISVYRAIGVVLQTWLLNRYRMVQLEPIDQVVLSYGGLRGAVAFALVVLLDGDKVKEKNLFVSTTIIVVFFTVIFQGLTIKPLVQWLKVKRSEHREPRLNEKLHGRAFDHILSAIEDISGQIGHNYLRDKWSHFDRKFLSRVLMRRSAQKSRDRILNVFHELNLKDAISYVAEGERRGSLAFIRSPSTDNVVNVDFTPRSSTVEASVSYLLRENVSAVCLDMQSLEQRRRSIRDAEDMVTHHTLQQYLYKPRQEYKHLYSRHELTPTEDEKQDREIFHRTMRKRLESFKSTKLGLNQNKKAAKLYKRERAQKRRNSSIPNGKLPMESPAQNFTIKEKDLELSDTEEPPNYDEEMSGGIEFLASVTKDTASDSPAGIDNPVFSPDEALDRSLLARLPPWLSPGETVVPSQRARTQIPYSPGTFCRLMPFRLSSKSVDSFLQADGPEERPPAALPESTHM

[3] = biological target: Sodium/hydrogen exchanger 1 (Homo sapiens, UniProt P19634); test: Inhibition of NHE-1 (unknown origin)
Sodium/hydrogen exchanger 1, sequence (P19634 whole entry): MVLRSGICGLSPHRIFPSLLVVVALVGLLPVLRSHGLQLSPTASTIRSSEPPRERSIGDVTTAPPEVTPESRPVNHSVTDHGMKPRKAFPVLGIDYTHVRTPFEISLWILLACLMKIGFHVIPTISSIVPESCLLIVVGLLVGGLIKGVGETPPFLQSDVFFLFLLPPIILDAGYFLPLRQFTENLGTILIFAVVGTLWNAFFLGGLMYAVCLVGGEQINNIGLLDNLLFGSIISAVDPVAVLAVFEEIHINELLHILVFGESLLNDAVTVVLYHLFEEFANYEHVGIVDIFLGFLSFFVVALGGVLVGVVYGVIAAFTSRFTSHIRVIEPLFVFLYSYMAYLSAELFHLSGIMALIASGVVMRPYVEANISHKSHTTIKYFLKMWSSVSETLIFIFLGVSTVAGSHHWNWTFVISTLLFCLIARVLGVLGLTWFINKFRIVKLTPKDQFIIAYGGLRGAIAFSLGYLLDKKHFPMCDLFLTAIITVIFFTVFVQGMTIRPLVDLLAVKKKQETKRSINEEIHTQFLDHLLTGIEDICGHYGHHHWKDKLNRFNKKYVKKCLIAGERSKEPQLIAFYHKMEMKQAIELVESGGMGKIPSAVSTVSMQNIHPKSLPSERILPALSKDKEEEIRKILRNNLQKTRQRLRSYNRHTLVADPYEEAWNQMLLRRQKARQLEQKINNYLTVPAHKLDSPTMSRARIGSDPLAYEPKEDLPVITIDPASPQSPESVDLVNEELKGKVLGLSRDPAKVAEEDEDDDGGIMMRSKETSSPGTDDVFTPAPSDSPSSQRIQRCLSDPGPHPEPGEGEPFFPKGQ

[4] = biological target: T3, Sodium/hydrogen exchanger 5 (Homo sapiens, UniProt Q14940); test: Inhibition of NHE-5 (unknown origin)
T3 sequence (Q14940 whole entry): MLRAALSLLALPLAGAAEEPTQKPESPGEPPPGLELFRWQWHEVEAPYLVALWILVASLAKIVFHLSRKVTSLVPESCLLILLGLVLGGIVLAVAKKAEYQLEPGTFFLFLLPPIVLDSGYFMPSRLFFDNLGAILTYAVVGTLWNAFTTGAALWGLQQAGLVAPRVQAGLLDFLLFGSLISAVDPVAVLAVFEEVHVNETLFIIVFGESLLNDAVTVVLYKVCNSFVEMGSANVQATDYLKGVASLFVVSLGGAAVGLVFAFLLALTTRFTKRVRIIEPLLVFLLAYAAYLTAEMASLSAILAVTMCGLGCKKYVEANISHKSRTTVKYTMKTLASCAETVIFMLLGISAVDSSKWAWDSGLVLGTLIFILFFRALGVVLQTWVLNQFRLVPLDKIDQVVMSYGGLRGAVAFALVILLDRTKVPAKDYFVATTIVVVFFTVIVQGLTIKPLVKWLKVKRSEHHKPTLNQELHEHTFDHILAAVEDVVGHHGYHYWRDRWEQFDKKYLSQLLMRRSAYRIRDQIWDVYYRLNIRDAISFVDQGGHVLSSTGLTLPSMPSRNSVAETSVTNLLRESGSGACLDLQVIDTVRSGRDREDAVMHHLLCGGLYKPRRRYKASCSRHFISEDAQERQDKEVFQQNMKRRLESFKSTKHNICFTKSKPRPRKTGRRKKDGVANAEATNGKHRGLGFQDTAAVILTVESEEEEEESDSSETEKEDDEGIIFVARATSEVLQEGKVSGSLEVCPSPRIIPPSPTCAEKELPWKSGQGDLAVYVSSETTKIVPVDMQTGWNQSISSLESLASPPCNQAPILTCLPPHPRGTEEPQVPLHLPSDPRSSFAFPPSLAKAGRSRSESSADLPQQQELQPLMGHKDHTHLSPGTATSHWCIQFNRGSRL

[5] = AUC in Sprague-Dawley rat at 4.6 mg/kg administered via oral gavage measured up to 4 hrs by LC/MS/MS analysis; format: ADME, organism-based; set-up: time < 4 hr, dose 4.6 mg/kg, route oral; settings: in vivo
[6] = Cmax in Sprague-Dawley rat at 4.6 mg/kg administered via oral gavage measured up to 4 hrs by LC/MS/MS analysis; format: ADME, organism-based; set-up: dose 4.6 mg/kg, route oral; settings: in vivo
Rattus norvegicus [7] = test: Effect on fecal water content in Sprague-Dawley rat at 3 mg/kg administered via oral gavage measured after 16 hrs relative to control; format: functional
Rattus norvegicus [8] = test: Decrease in urinary sodium level in Sprague-Dawley rat administered via oral gavage measured after 16 hrs by ion chromatographic analysis; format: functional
[9] = Drug recovery in Sprague-Dawley rat feces at 0.1 mg/kg administered via oral gavage measured after 72 hrs by LC/MS/MS analysis; format: ADME, organism-based; settings: faeces, read-out: Drug recovery
[10] = Apparent permeability of the compound from apical to basolateral side at pH 7.4 after 3 hrs by PAMPA; format: ADME
[11] = AUC in Sprague-Dawley rat at 28 mg/kg administered via oral gavage measured up to 4 hrs by LC/MS/MS analysis; format: ADME, organism-based; set-up: time < 4 hr, dose 28 mg/kg, route oral; settings: in vivo
[12] = Cmax in Sprague-Dawley rat at 28 mg/kg administered via oral gavage measured up to 4 hrs by LC/MS/MS analysis; format: ADME, organism-based; set-up: dose 28 mg/kg, route oral; settings: in vivo

SMILES | IC50 [1] | IC50 [2] | IC50 [3] | Activity (Rattus norvegicus [7]) | other results
CC1(C)[C@H](C(=O)N=C(N)N)[C@H]1c1cccc2c1CCO2 | 1.8 µM | > 30 µM | – | – | –
C/C(=C\c1cc(F)c(Oc2ccc(S(=O)(=O)NCc3ccc(CP(=O)(O)O)cc3)cc2)c(F)c1)C(=O)N=C(N)N | – | – | – | – | AUC at 4 h [5]: 9 ng·h/mL; Cmax [6]: 14 ng/mL
CN1Cc2c(Cl)cc(Cl)cc2[C@H](c2ccc(S(=O)(=O)NCCOCCOCCNC(=O)COCC(=O)NCCOCCOCCNS(=O)(=O)c3ccc([C@@H]4CN(C)Cc5c(Cl)cc(Cl)cc54)cc3)cc2)C1.Cl.Cl (single isomer, unassigned) | – | – | – | 127% | Activity (Rattus norvegicus [8]): Dose-dependent effect
C/C(=C\c1cccc(/C=C(\C)C(=O)NC(=N)N)c1)C(=O)N=C(N)N | 0.07 µM | 1.32 µM | 0.002 µM | – | –
CN1Cc2c(Cl)cc(Cl)cc2[C@H](c2cccc(S(=O)(=O)NCCOCCOCCNC(=O)Nc3ccc(NC(=O)NCCOCCOCCNS(=O)(=O)c4cccc([C@@H]5CN(C)Cc6c(Cl)cc(Cl)cc65)c4)cc3)c2)C1.Cl.Cl (single isomer, unassigned) | – | – | – | 130% | dose excreted at 72 h [9]: 75.8 to 104%
NC(N)=Nc1nc(-c2cccc(N3CCN(CCCC(=O)O)CC3)c2)c2cc(Cl)ccc2n1.O=C(O)C(F)(F)F | – | – | – | – | Papp at 3 h [10]: 0.4 ×10⁻⁶ cm/s
CN1Cc2c(Cl)cc(Cl)cc2C(c2ccc(S(=O)(=O)NCCOCCOCCNC(=O)C(=O)NCCOCCOCCNS(=O)(=O)c3ccc(C4CN(C)Cc5c(Cl)cc(Cl)cc54)cc3)cc2)C1 (stereo not drawn) | – | – | – | – | AUC at 4 h [11]: 6 ng·h/mL; Cmax [12]: 8 ng/mL
CN1Cc2c(Cl)cc(Cl)cc2[C@H](c2cccc(S(=O)(=O)NCCOCCOCCNC(=O)NCCCCNC(=O)NCCOCCOCCNS(=O)(=O)c3cccc([C@@H]4CN(C)Cc5c(Cl)cc(Cl)cc54)c3)c2)C1.Cl.Cl (single isomer, unassigned) [TENAPANOR HYDROCHLORIDE] | – | – | – | 134% | dose excreted at 72 h [9]: 90.5 to 93.8%

The next lines start with results.

IC50 [1] | IC50 [2] | IC50 [3] | SMILES | Activity (Rattus norvegicus [7]) | other results
0.43 µM | 11 µM | 0.001 µM | Cc1ccc(F)cc1[C@@H]1C/C(=N\N=C(N)N)c2c(C)cccc2C1 | – | –
2 to 17 µM | 100 to 460 µM | 0.005 to 0.38 µM | Cc1cc(-n2cccc2)c(S(C)(=O)=O)cc1C(=O)NC(=N)N [ENIPORIDE] | – | IC50 [4]: > 30 µM
